Laboratory results reported in PubChem BioAssay AID1963982 (Molecular Pharmacology Branch, DTP, NCI, 2024).
pIC50: −log10 of the molar value. One block for each molecule: values may come before it.

System: 313798-341-R-J2-PDC spheroids, viability
Experiment: Anticancer human tumor 313798-341-R-J2-PDC patient-derived cervical squamous cell carcinoma cell line growth inhibition [PI3K]
Conditions: spheroids with HUVEC and MSC; for pIC50: curve of first compound; for viability, T/C: stronger effect = lower value
Source text: Combinatorial screen of targeted agents with the PI3K inhibitors inavolisib, alpelisib, duvelisib, and copanlisib in multi-cell type tumor spheroids
A high-throughput screen of multi-cell type tumor spheroids was designed to identify active combinations of targeted small molecules and PI3K pathway inhibitors. Complex spheroids include a stromal component modeled by human endothelial cells (HUVEC) and fibroblasts modeled by human mesenchymal stem cells (MSCs). The concentration ranges selected for each drug and investigational agent were based upon clinically achievable concentrations if the clinical Cmax of the agent was known.
Compounds. The drugs and investigational agents: inavolisib (NSC800729), alpelisib (NSC765974), duvelisib (NSC772469), copanlisib (NSC816437), ipatasertib (NSC767898), afuresertib (NSC778305), talazoparib (NSC767125), sapanisertib (NSC764658), selumetinib (NSC741078), tovorafenib (DAY101, NSC766906), vemurafenib (NSC761431), ravoxertinib (NSC781343), sotorasib (NSC818433), MRTX1133 (NSC 836407), abemaciclib (NSC 768073), palbociclib (NSC758247), venetoclax (NSC 766270), SY5609 (NSC837396), enzalutamide (NSC755605), and darolutamide (NSC825331), were obtained from the National Cancer Institute (NCI) Developmental Therapeutics Program Chemical Repository. The FDA-approved anticancer drug set is available from the NCI Developmental Therapeutics Program. […] The stock solutions were prepared in dimethyl sulfoxide (DMSO, Sigma-Aldrich, St. Louis, MO, cat. D2650) at 800-fold the tested concentration and stored at -70 degrees C prior to their use. All drugs and investigational agents were tested over a range starting from a high concentration at or near the clinical Cmax and decreasing in half-log increments. If the clinical Cmax for an agent had not been determined, the highest concentration tested was 10 microM.
Cell Culture. All cells were maintained in an incubator at 37 degrees C and 5% CO2 with 95% humidity. The PDC lines were cultured according to standard operating procedures established by the NCI PDMR (https://pdmr.cancer.gov/sops/default.htm). All PDCs were thawed and cultured in Matrigel-coated flasks prepared with a working solution of 1X Ham's F-12 nutrient mix, without supplementation (Invitrogen, Waltham, MA, cat. 11765054), 100 U/mL penicillin-streptomycin (Invitrogen, cat. 15140122), and 2.5% Matrigel (Corning Inc., Corning, NY, cat. 354248) for the first three passages. The 354836-022-R-J1-PDC, 475296-252-R-J1-PDC, and 997726-040-R-J2-PDC lines were cultured in 6A media, which includes advanced DMEM/F-12 (Thermo Fisher Scientific, cat. 12634028), 10 mM HEPES (Thermo Fisher Scientific, cat. 15630080), 1X GlutaMAX supplement (Thermo Fisher Scientific, cat. 35050061), 0.1 mg/mL primocin (InvivoGen, San Diego, CA, cat. ant-pm-2), 10% defined fetal bovine serum, heat inactivated (HyClone Laboratories Inc., Logan, UT, cat. SH30070.03HI), 50% L-WRN conditioned media (ATCC, cat. CRL-3276), 1.25 mM N-Acetyl-L-cysteine (Sigma-Aldrich, cat. A9165), 10 mM nicotinamide (Sigma-Aldrich, cat. N0636), 1X B-27 supplement (Thermo Fisher Scientific, cat. 17504044), 1X N-2 supplement (Thermo Fisher Scientific, cat. 17502048), and 10 microM Y-27632 dihydrochloride (Tocris Bioscience, Bristol, United Kingdom, cat. 1254). The 624824-186-R-J2-PDC line was cultured in 6C/Colon 1B media, which includes all 6A media components plus 50 ng/mL human EGF recombinant protein (Thermo Fisher Scientific, cat. PHG0311). […]

[1] = second compound 0.00316 µM, first compound 0.0316 µM
[2] = second compound 0.00316 µM, first compound 0.1 µM
[3] = second compound 0.01 µM, first compound 0.0316 µM
[4] = second compound 0.01 µM, first compound 0.1 µM
[5] = second compound 0.0316 µM, first compound 0.0316 µM
[6] = second compound 0.0316 µM, first compound 0.1 µM
[7] = second compound 0.1 µM, first compound 0.0316 µM
[8] = second compound 0.1 µM, first compound 0.1 µM
[9] = second compound 0.316 µM, first compound 0.0316 µM
[10] = second compound 0.316 µM, first compound 0.1 µM
[11] = second compound 1 µM, first compound 0.0316 µM
[12] = second compound 1 µM, first compound 0.1 µM
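Further: spheroids exposed to compounds for seven days.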
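Wherever viability, T/C is given: 100% = DMSO vehicle control viability.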

- pIC50 (second compound 0.00316 µM): < 7.00
- pIC50 (second compound 0.01 µM): < 7.00
- pIC50 (second compound 0.0316 µM): < 7.00
- pIC50 (second compound 0.1 µM): < 7.00
- pIC50 (second compound 0.316 µM): < 7.00
- pIC50 (second compound 1 µM): < 7.00
Structure (SMILES): CC(=O)c1c(C)c2cnc(Nc3ccc(N4CCNCC4)cn3)nc2n(C2CCCC2)c1=O + CC(Nc1ccc2c(c1)OCCn1cc(N3C(=O)OCC3C(F)F)nc1-2)C(N)=O
- viability, T/C (second compound 0.00316 µM, first compound 0.000316 µM): 98.7%
- viability, T/C (second compound 0.00316 µM, first compound 0.001 µM): 97.9%
- viability, T/C (second compound 0.00316 µM, first compound 0.00316 µM): 107%
- viability, T/C (second compound 0.00316 µM, first compound 0.01 µM): 102%
- viability, T/C [1]: 110%
- viability, T/C [2]: 102%
- viability, T/C (second compound 0.01 µM, first compound 0.000316 µM): 94.2%
- viability, T/C (second compound 0.01 µM, first compound 0.001 µM): 100%
- viability, T/C (second compound 0.01 µM, first compound 0.00316 µM): 113%
- viability, T/C (second compound 0.01 µM, first compound 0.01 µM): 98.5%
- viability, T/C [3]: 124%
- viability, T/C [4]: 99.3%
- viability, T/C (second compound 0.0316 µM, first compound 0.000316 µM): 105%
- viability, T/C (second compound 0.0316 µM, first compound 0.001 µM): 114%
- viability, T/C (second compound 0.0316 µM, first compound 0.00316 µM): 108%
- viability, T/C (second compound 0.0316 µM, first compound 0.01 µM): 110%
- viability, T/C [5]: 103%
- viability, T/C [6]: 103%
- viability, T/C (second compound 0.1 µM, first compound 0.000316 µM): 108%
- viability, T/C (second compound 0.1 µM, first compound 0.001 µM): 102%
- viability, T/C (second compound 0.1 µM, first compound 0.00316 µM): 102%
- viability, T/C (second compound 0.1 µM, first compound 0.01 µM): 110%
- viability, T/C [7]: 103%
- viability, T/C [8]: 113%
- viability, T/C (second compound 0.316 µM, first compound 0.000316 µM): 82.8%
- viability, T/C (second compound 0.316 µM, first compound 0.001 µM): 79.5%
- viability, T/C (second compound 0.316 µM, first compound 0.00316 µM): 79.4%
- viability, T/C (second compound 0.316 µM, first compound 0.01 µM): 86.1%
- viability, T/C [9]: 83.8%
- viability, T/C [10]: 90.6%
- viability, T/C (second compound 1 µM, first compound 0.000316 µM): 60.8%
- viability, T/C (second compound 1 µM, first compound 0.001 µM): 57.5%
- viability, T/C (second compound 1 µM, first compound 0.00316 µM): 58.3%
- viability, T/C (second compound 1 µM, first compound 0.01 µM): 55.4%
- viability, T/C [11]: 61.6%
- viability, T/C [12]: 56.5%

- pIC50 (second compound 0.00316 µM): < 5.00
- pIC50 (second compound 0.01 µM): < 5.00
- pIC50 (second compound 0.0316 µM): < 5.00
- pIC50 (second compound 0.1 µM): < 5.00
- pIC50 (second compound 0.316 µM): < 5.00
- pIC50 (second compound 1 µM): 5.43
Structure (SMILES): CNC(=O)c1ccc(N2C(=S)N(c3ccc(C#N)c(C(F)(F)F)c3)C(=O)C2(C)C)cc1F + CC(Nc1ccc2c(c1)OCCn1cc(N3C(=O)OCC3C(F)F)nc1-2)C(N)=O
- viability, T/C [1]: 99.8%
- viability, T/C [2]: 87%
- viability, T/C (second compound 0.00316 µM, first compound 0.316 µM): 89.7%
- viability, T/C (second compound 0.00316 µM, first compound 1 µM): 101%
- viability, T/C (second compound 0.00316 µM, first compound 3.16 µM): 99.3%
- viability, T/C (second compound 0.00316 µM, first compound 10 µM): 88.2%
- viability, T/C [3]: 103%
- viability, T/C [4]: 94.8%
- viability, T/C (second compound 0.01 µM, first compound 0.316 µM): 97.6%
- viability, T/C (second compound 0.01 µM, first compound 1 µM): 91.3%
- viability, T/C (second compound 0.01 µM, first compound 3.16 µM): 101%
- viability, T/C (second compound 0.01 µM, first compound 10 µM): 90%
- viability, T/C [5]: 93.3%
- viability, T/C [6]: 101%
- viability, T/C (second compound 0.0316 µM, first compound 0.316 µM): 102%
- viability, T/C (second compound 0.0316 µM, first compound 1 µM): 92.8%
- viability, T/C (second compound 0.0316 µM, first compound 3.16 µM): 97.5%
- viability, T/C (second compound 0.0316 µM, first compound 10 µM): 90.1%
- viability, T/C [7]: 97.7%
- viability, T/C [8]: 92%
- viability, T/C (second compound 0.1 µM, first compound 0.316 µM): 91.9%
- viability, T/C (second compound 0.1 µM, first compound 1 µM): 91.7%
- viability, T/C (second compound 0.1 µM, first compound 3.16 µM): 87.5%
- viability, T/C (second compound 0.1 µM, first compound 10 µM): 77.6%
- viability, T/C [9]: 82.7%
- viability, T/C [10]: 75.8%
- viability, T/C (second compound 0.316 µM, first compound 0.316 µM): 79.7%
- viability, T/C (second compound 0.316 µM, first compound 1 µM): 70.2%
- viability, T/C (second compound 0.316 µM, first compound 3.16 µM): 62.2%
- viability, T/C (second compound 0.316 µM, first compound 10 µM): 60.2%
- viability, T/C [11]: 50.2%
- viability, T/C [12]: 59.6%
- viability, T/C (second compound 1 µM, first compound 0.316 µM): 53%
- viability, T/C (second compound 1 µM, first compound 1 µM): 51.1%
- viability, T/C (second compound 1 µM, first compound 3.16 µM): 51.8%
- viability, T/C (second compound 1 µM, first compound 10 µM): 44.7%
